These results are taken from patent publication US20190194179A1, “ANTIBIOTIC COMPOUNDS” (DISCUVA LTD., priority 2016, published 2019).

Structures can show the parent of a compound that is named as a salt.

The experiment relates to Neisseria gonorrhoeae. The experiment can be described thus: EC50 determination: plate-based broth growth assay (absorbance at 600 nm) of Neisseria gonorrhoeae. Format: cell-based. As to conditions: absorbance 600 nm after 20 hours at 37° C./5% CO2, read-out: IC50 (Inhibitory concentration) against Neisseria gonorrhoeae. An outline of the steps: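 Mid-log culture diluted to ~10^5 cells/ml as inoculum and grown 20 hours at 37° C./5% CO2 across a 10-point compound dilution series. Growth read as absorbance at 600 nm; EC50 taken from transformed data as the concentration giving 50% response relative to no-compound controls.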
For the molecule `Cc1nnc(Nc2nc3cc(C(F)(F)F)c(Cl)cc3n2C)[nH]1` [Example 144, 6-Chloro-1-methyl-N-(5-methyl-4H-1,2,4-triazol-3-yl)-5-(trifluoromethyl)-1H-benzo[d]imidazol-2-amine], the IC50 was at most 100000 nM.

On to `FC(F)(F)c1ccc2oc(Nc3nnc(C4CCNCC4)o3)nc2c1` [Example 145, N-(5-(Piperidin-4-yl)-1,3,4-oxadiazol-2-yl)-5-(trifluoromethyl)benzo[d]oxazol-2-amine hydrochloride], for which the IC50 is at most 100000 nM.

As for `FC(F)(F)c1ccc2oc(Nc3nnc([C@@H]4CCCN4)o3)nc2c1` [Example 146, (S)-N-(5-(pyrrolidin-2-yl)-1,3,4-oxadiazol-2-yl)-5-(trifluoromethyl)benzo[d]oxazol-2-amine hydrochloride], the IC50 was at most 1000 nM.

Take `FC(F)(F)c1ccc2oc(Nc3nnc(CN4CCNCC4)o3)nc2c1` [Example 147, N-(5-(Piperazin-1-ylmethyl)-1,3,4-oxadiazol-2-yl)-5-(trifluoromethyl)benzo[d]oxazol-2-amine hydrochloride]: the IC50 was at most 100000 nM.

Turning to `CC(C)(C)OC(=O)N1CCN(c2nnc(Nc3nc4cc(C(F)(F)F)ccc4o3)o2)CC1` [Example 148, tert-butyl 4-(5-((5-(trifluoromethyl)benzo[d]oxazol-2-yl)amino)-1,3,4-oxadiazol-2-yl)piperazine-1-carboxylate], the IC50 was at most 100000 nM.

As to `FC(F)(F)c1cc2oc(Nc3nnco3)nc2cc1Cl` [Example 149, 5-Chloro-N-(1,3,4-oxadiazol-2-yl)-6-(trifluoromethyl)benzo[d]oxazol-2-amine], the IC50 is at most 100 nM.

As for `Clc1ccc2nc(Nc3nnc[nH]3)oc2c1` [Example 150, 6-Chloro-N-(4H-1,2,4-triazol-3-yl)benzo[d]oxazol-2-amine], the IC50 was at most 1000 nM.

As for `Clc1ccc2nc(Nc3nncs3)oc2c1` [Example 151, 6-Chloro-N-(1,3,4-thiadiazol-2-yl)benzo[d]oxazol-2-amine], the IC50 is at most 1000 nM.

With `Clc1cc2nc(Nc3nnco3)oc2cc1Cl` [Example 152, 5,6-Dichloro-N-(1,3,4-oxadiazol-2-yl)benzo[d]oxazol-2-amine], the IC50 was at most 100 nM.

Turning to `Cc1nnc(Nc2nc3cc(C(F)(F)F)c(Cl)cc3[nH]2)[nH]1` [Example 153, 6-Chloro-N-(5-methyl-4H-1,2,4-triazol-3-yl)-5-(trifluoromethyl)-1H-benzo[d]imidazol-2-amine], the IC50 was at most 10000 nM.

Regarding `Cc1nnc(Nc2nc3c(C)nccc3o2)o1` [Example 154, 4-Methyl-N-(5-methyl-1,3,4-oxadiazol-2-yl)oxazolo[4,5-c]pyridin-2-amine], the IC50 is at most 10000 nM.

As for `CN1CCc2nc(Nc3nc4cc(C(F)(F)F)ccc4o3)oc2C1` [Example 155, 5-Methyl-N-(5-(trifluoromethyl)benzo[d]oxazol-2-yl)-4,5,6,7-tetrahydrooxazolo[5,4-c]pyridin-2-amine], the IC50 is at most 1000 nM.

As for `CN1CCc2oc(Nc3nc4cc(C(F)(F)F)ccc4o3)nc2C1` [Example 156, 5-Methyl-N-(5-(trifluoromethyl)benzo[d]oxazol-2-yl)-4,5,6,7-tetrahydrooxazolo[4,5-c]pyridin-2-amine], the IC50 was at most 1000 nM.

Take `FC(F)(F)c1ccc2oc(Nc3nc4ccccc4o3)nc2c1` [Example 158, N-(Benzo[d]oxazol-2-yl)-5-(trifluoromethyl) benzo[d]oxazol-2-amine]: the IC50 is at most 100 nM.

With `Fc1ccc2oc(Nc3nc4cnccc4o3)nc2c1` [Example 160, N-(5-Fluorobenzo[d]oxazol-2-yl)oxazolo[4,5-c]pyridin-2-amine], the IC50 is at most 100000 nM.

With `FC(F)(F)c1cc2oc(Nc3nc4cnccc4o3)nc2cn1` [Example 161, N-(Oxazolo[4,5-c]pyridin-2-yl)-6-(trifluoromethyl)oxazolo[4,5-c]pyridin-2-amine], the IC50 is at most 100000 nM.

In the case of `Clc1ccc2oc(Nc3nc4ccccc4o3)nc2c1` [Example 162, N-(Benzo[d]oxazol-2-yl)-5-chlorobenzo[d] oxazol-2-amine], the IC50 was at most 100 nM.

Regarding `FC(F)(F)c1cc2oc(Nc3nc4ccccc4o3)nc2cn1` [Example 163, N-(Benzo[d]oxazol-2-yl)-6-(trifluoromethyl) oxazolo[4,5-c]pyridin-2-amine], the IC50 is at most 100 nM.

On to `Clc1ccc2oc(Nc3nc4cnccc4o3)nc2c1` [Example 164, N-(5-Chlorobenzo[d]oxazol-2-yl)oxazolo[4,5-c]pyridin-2-amine], for which the IC50 was at most 100 nM.

As for `FC(F)(F)c1cc2oc(Nc3nc4ccccc4[nH]3)nc2cn1` [Example 166, N-(1H-Benzo[d]imidazol-2-yl)-6-(trifluoromethyl) oxazolo[4,5-c]pyridin-2-amine], the IC50 was at most 1000 nM.

On to `FC(F)(F)c1ccc2oc(Nc3nc4ccccc4[nH]3)nc2c1` [Example 167, N-(1H-Benzo[d]imidazol-2-yl)-5-(trifluoromethyl) benzo[d]oxazol-2-amine], for which the IC50 is at most 1000 nM.

Take `Clc1ccc2[nH]c(Nc3nc4cnccc4o3)nc2c1` [Example 168, N-(5-Chloro-1H-benzo[d]imidazol-2-yl)oxazolo [4,5-c]pyridin-2-amine]: the IC50 is at most 1000 nM.

Consider `CN(c1nc2ccccc2o1)c1nc2cnc(C(F)(F)F)cc2o1` [Example 169, N-(benzo[d]oxazol-2-yl)-N-methyl-6-(trifluoromethyl)oxazolo[4,5-c]pyridin-2-amine], for which the IC50 is at most 100000 nM.

With `Cc1nccc2oc(Nc3nc4ccccc4o3)nc12` [Example 171, N-(Benzo[d]oxazol-2-yl)-4-methyloxazolo[4,5-c]pyridin-2-amine], the IC50 was at most 1000 nM.

`Cc1cc(Nc2nc3ccc(Cl)cc3o2)no1` [Example 172, 6-Chloro-N-(5-methylisoxazol-3-yl)benzo[d]oxazol-2-amine]: the IC50 was at most 1000 nM.

In the case of `Clc1ccc2oc(Nc3cscn3)nc2c1` [Example 173, 5-Chloro-N-(thiazol-4-yl)benzo[d]oxazol-2-amine], the IC50 is at most 10000 nM.

Regarding `Fc1cc2nc(Nc3nnco3)oc2cc1OC(F)(F)F` [Example 174, 5-Fluoro-N-(1,3,4-oxadiazol-2-yl)-6-(trifluoromethoxy)benzo[d]oxazol-2-amine], the IC50 is at most 100 nM.

Regarding `Clc1ccc2nc(Nc3nnc(C4CC4)o3)oc2c1` [Example 175, 6-Chloro-N-(5-cyclopropyl-1,3,4-oxadiazol-2-yl)benzo[d]ox-azol-2-amine], the IC50 was at most 100 nM.

Turning to `Fc1cc(Cl)cc2oc(Nc3nnco3)nc12` [Example 176, 6-Chloro-4-fluoro-N-(1,3,4-oxadiazol-2-yl)benzo[d]ox-azol-2-amine], the IC50 is at most 1000 nM.

For the molecule `Oc1ccc2nc(Nc3nnco3)oc2c1` [Example 177, 2-((1,3,4-Oxadiazol-2-yl)amino)ben-zo[d]oxazol-6-ol], the IC50 was at most 10000 nM.

In the case of `COC(=O)c1ccc2nc(Nc3nnco3)oc2c1` [Example 178, Methyl 2-((1,3,4-oxadiazol-2-yl)amino)ben-zo[d]oxazole-6-carboxylate], the IC50 was at most 1000 nM.

`Brc1ccc2nc(Nc3nnco3)oc2c1` [Example 179, 6-Bromo-N-(1,3,4-oxadiazol-2-yl)benzo[d]ox-azol-2-amine]: the IC50 was at most 100 nM.

For `c1nnc(Nc2nc3ccc(C4CC4)cc3o2)o1` [Example 180, 6-Cyclopropyl-N-(1,3,4-oxadiazol-2-yl)benzo[d]ox-azol-2-amine], the IC50 is at most 1000 nM.
